These compounds were tested against Human Factor D (Homo sapiens (Human), UniProt P00746) (assay: Human Factor D Assay). Conditions: Factor D inhibition, assay of Example 10; read-out: IC5 (Stars).
Type: biochemical
Procedure, shortened: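 Serum-purified Factor D (80 nM final) preincubated 5 min at room temperature with compound in 50 mM Tris, 1 M NaCl, pH 7.5. Z-L-Lys-SBz and DTNB added at 100 μM each; A405 followed every 30 s for 30 min. IC50 from nonlinear regression of rates versus concentration.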

Human Factor D, sequence (P00746 26-253): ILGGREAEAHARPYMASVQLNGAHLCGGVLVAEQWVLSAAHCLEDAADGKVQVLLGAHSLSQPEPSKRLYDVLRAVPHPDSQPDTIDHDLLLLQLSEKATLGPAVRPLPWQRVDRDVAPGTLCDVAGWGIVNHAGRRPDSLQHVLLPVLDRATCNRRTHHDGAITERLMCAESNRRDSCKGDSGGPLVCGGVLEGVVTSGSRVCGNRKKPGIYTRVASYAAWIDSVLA

**Q.** `COC(=O)c1cc2c(cc1-c1cnc(C)nc1)c(C(C)=O)nn2CC(=O)N1[C@H](C(=O)Nc2nc(Br)ccc2C)C[C@@]2(C)C[C@@H]12` [Compound 395, methyl 3-acetyl-1-(2-((1R,3S,5R)-3-((6-bromo-3-methylpyridin-2-yl)carbamoyl)-5-methyl-2-azabicyclo[3.1.0]hexan-2-yl)-2-oxoethyl)-5-(2-methylpyrimidin-5-yl)-1H-indazole-6-carboxylate] was tested. Which IC50 did it give?
**A.** < 1000 nM

**Q.** How did the IC50 turn out when `CC(=O)c1nn(CC(=O)N(C(=O)[C@@H]2C[C@@]3(C)C[C@H]3N2)c2nc(Br)ccc2CN(CCC(F)(F)F)CCC(F)(F)F)c2cnc(-c3cnc(C)nc3)cc12` [Compound 396, (1R,3S,5R)-2-(2-(3-acetyl-5-(2-methylpyrimidin-5-yl)-1H-pyrazolo[3,4-c]pyridin-1-yl)acetyl)-N-(3-((bis(3,3,3-trifluoropropyl)amino)methyl)-6-bromopyridin-2-yl)-5-methyl-2-azabicyclo[3.1.0]hexane-3-carboxamide] was run?
**A.** < 1000 nM

**Q.** Which IC50 does the source give for `CC(=O)c1nn(CC(=O)N2[C@H](C(=O)Nc3nc(Br)ccc3Cc3nn[nH]n3)C[C@@]3(C)C[C@@H]23)c2cnc(-c3cnc(C)nc3)cc12` [Compound 397, (1R, 3S, 5R)—N-(3-((2H-Tetrazol-5-yl)methyl)-6-bromopyridin-2-yl)-2-(2-(3-acetyl-5-(2-methylpyrimidin-5-yl)-1H-pyrazolo[3,4-c]pyridin-1-yl)acetyl)-5-methyl-2-azabicyclo[3.1.0]hexane-3-carboxamide] here?
**A.** < 1000 nM

**Q.** With `CC(=O)c1nn(CC(=O)N2[C@H](C(=O)Nc3nc(Br)ccc3CN(C)C)C[C@@]3(C)C[C@@H]23)c2cc(Cl)c(-c3cnc(C)nc3)cc12` [Compound 399, (1R,3S,5R)-2-(2-(3-acetyl-6-chloro-5-(2-methylpyrimidin-5-yl)-1H-indazol-1-yl)acetyl)-N-(6-bromo-3-((dimethylamino)methyl)pyridin-2-yl)-5-methyl-2-azabicyclo[3.1.0]hexane-3-carboxamide] as the compound, how does the IC50 read?
**A.** < 1000 nM

**Q.** Which IC50 does the source give for `CC(=O)c1nn(CC(=O)N2[C@H](C(=O)Nc3nc(Br)ccc3CCCN3CCOCC3)C[C@@]3(C)C[C@@H]23)c2cnc(-c3cnc(C)nc3)cc12` [Compound 400, (1R,3S,5R)-2-(2-(3-Acetyl-5-(2-methylpyrimidin-5-yl)-1H-pyrazolo[3,4-c]pyridin-1-yl)acetyl)-N-(6-bromo-3-(3-morpholinopropyl)pyridin-2-yl)-5-methyl-2-azabicyclo[3.1.0]hexane-3-carboxamide] here?
**A.** < 1000 nM

**Q.** How did the IC50 turn out when `Cc1ncc(-c2cc3c(C(C)O)nn(CC(=O)N4[C@H](C(=O)Nc5nc(Br)ccc5C)C[C@@]5(C)C[C@@H]45)c3cn2)cn1` (stereo partly drawn) [Compound 402, (1R,3S,5R)-N-(6-bromo-3-methylpyridin-2-yl)-2-(2-(3-(1-hydroxyethyl)-5-(2-methylpyrimidin-5-yl)-1H-pyrazolo[3,4-c]pyridin-1-yl)acetyl)-5-methyl-2-azabicyclo[3.1.0]hexane-3-carboxamide] was run?
**A.** 1000 to 10000 nM

**Q.** Which IC50 does the source give for `Cc1ncc(-c2cc(C)c3c(c2)c(C#N)nn3CC(=O)N2[C@H](C(=O)Nc3nc(Br)ccc3C)C[C@@]3(C)C[C@@H]23)cn1` [Compound 407, (1R,3S,5R)-N-(6-bromo-3-methylpyridin-2-yl)-2-(2-(3-cyano-7-methyl-5-(2-methylpyrimidin-5-yl)-1H-indazol-1-yl)acetyl)-5-methyl-2-azabicyclo[3.1.0]hexane-3-carboxamide] here?
**A.** < 1000 nM

**Q.** For `CC(=O)c1nn(CC(=O)N2[C@H](C(=O)Nc3nc(Br)ccc3CN(C)C)C[C@@]3(C)C[C@@H]23)c2c(Cl)cc(-c3cnc(C)nc3)cc12` [Compound 408, (1R,3S,5R)-2-(2-(3-acetyl-7-chloro-5-(2-methylpyrimidin-5-yl)-1H-indazol-1-yl)acetyl)-N-(6-bromo-3-((dimethylamino)methyl)pyridin-2-yl)-5-methyl-2-azabicyclo[3.1.0]hexane-3-carboxamide], which IC50 is on record?
**A.** < 1000 nM

**Q.** With `CC(=O)c1nn(CC(=O)N2[C@H](C(=O)Nc3nc(Br)ccc3C)C[C@@]3(Cc4nc(C)no4)C[C@@H]23)c2c(CF)cc(-c3cnc(C)nc3)cc12` [Compound 409, (1R,3S,5R)-2-(2-(3-acetyl-7-(fluoromethyl)-5-(2-methylpyrimidin-5-yl)-1H-indazol-1-yl)acetyl)-N-(6-bromo-3-methylpyridin-2-yl)-5-((3-methyl-1,2,4-oxadiazol-5-yl)methyl)-2-azabicyclo[3.1.0]hexane-3-carboxamide] as the compound, how does the IC50 read?
**A.** < 1000 nM

**Q.** How did the IC50 turn out when `CC(=O)c1nn(CC(=O)N2C[C@@](F)(CF)C[C@H]2C(=O)Nc2nc(Br)ccc2C)c2c(C)nc(-c3cnc(C)nc3)cc12` [Compound 410, (2S,4R)-1-(2-(3-acetyl-7-methyl-5-(2-methylpyrimidin-5-yl)-1H-pyrazolo[3,4-c]pyridin-1-yl)acetyl)-N-(6-bromo-3-methylpyridin-2-yl)-4-fluoro-4-(fluoromethyl)pyrrolidine-2-carboxamide] was run?
**A.** < 1000 nM

**Q.** `CC(=O)c1nn(CC(=O)N2C[C@H]3C[C@H]3[C@H]2C(=O)NCc2cccc(Cl)c2F)c2c(C)nc(-c3cnc(C)nc3)cc12` [Compound 411, (1R,2S,5S)-3-(2-(3-acetyl-7-methyl-5-(2-methylpyrimidin-5-yl)-1H-pyrazolo[3,4-c]pyridin-1-yl)acetyl)-N-(3-chloro-2-fluorobenzyl)-3-azabicyclo[3.1.0]hexane-2-carboxamide] was tested. Which IC50 did it give?
**A.** < 1000 nM

**Q.** Which IC50 does the source give for `CC(=O)c1nn(CC(=O)N2C[C@H]3C[C@H]3[C@H]2C(=O)NCc2cccc(Cl)c2F)c2ccc(-c3cnc(C)nc3)cc12` [Compound 412, (1R,2S,5S)-3-(2-(3-acetyl-5-(2-methylpyrimidin-5-yl)-1H-indazol-1-yl)acetyl)-N-(3-chloro-2-fluorobenzyl)-3-azabicyclo[3.1.0]hexane-2-carboxamide] here?
**A.** < 1000 nM

**Q.** How did the IC50 turn out when `CC(=O)c1nn(CC(=O)N2C[C@H]3C[C@H]3[C@H]2C(=O)NCc2cccc(Cl)c2F)c2c(C)cc(-c3cnc(C)nc3)cc12` [Compound 413] was run?
**A.** < 1000 nM

Same assay, conditions: Table 8; Factor D 80 nM, substrate Z-L-Lys-SBz; read-out: IC50

**Q.** `COC(=O)CCCCCCCCCCCCCCCCC(=O)N[C@@H](CCC(=O)NCCOCCOCC(=O)NCCOCCOCC(=O)NCc1ncc(-c2cc(C)c3c(c2)c(C(C)=O)nn3CC(=O)N2[C@H](C(=O)Nc3nc(Br)ccc3C)C[C@@]3(C)C[C@@H]23)cn1)C(=O)O` [Compound 403] was tested. Which IC50 did it give?
**A.** < 1000 nM

**Q.** For `CC(=O)c1nn(CC(=O)N2[C@H](C(=O)Nc3nc(Br)ccc3C)C[C@@]3(C)C[C@@H]23)c2c(C)cc(-c3cnc(CNC(=O)COCCOCCNC(=O)COCCOCCNC(=O)CC[C@H](NC(=O)CCCCCCCCCCCCCCCCC(=O)O)C(=O)O)nc3)cc12` [Compound 404], which IC50 is on record?
**A.** < 1000 nM

**Q.** `COC(=O)CCCCCCCCCCCCCCCCC(=O)N[C@@H](CCC(=O)NCCOCCOCC(=O)NCCOCCOCC(=O)NCc1ncc(-c2cc3c(C(C)=O)nn(CC(=O)N4[C@H](C(=O)Nc5nc(Br)ccc5C)C[C@@]5(C)C[C@@H]45)c3cn2)cn1)C(=O)OC` [Compound 405] was tested. Which IC50 did it give?
**A.** < 1000 nM

**Q.** Which IC50 does the source give for `COC(=O)CCCCCCCCCCCCCCCCC(=O)N[C@@H](CCC(=O)NCCOCCOCC(=O)NCCOCCOCC(=O)NC[C@@]12C[C@@H](C(=O)Nc3nc(Br)ccc3C)N(C(=O)Cn3nc(C(C)=O)c4cc(-c5cnc(C)nc5)ncc43)[C@@H]1C2)C(=O)OC` [Compound 406] here?
**A.** < 1000 nM

**Q.** `CC(=O)c1nn(CC(=O)N2[C@H](C(=O)Nc3nc(Br)ccc3C)C[C@@]3(C)C[C@@H]23)c2cnc(-c3cnc(CNC(=O)COCCOCCNC(=O)COCCOCCNC(=O)CC[C@H](NC(=O)CCCCCCCCCCCCCCCCC(=O)O)C(=O)O)nc3)cc12` [Compound 414] was tested. Which IC50 did it give?
**A.** < 1000 nM
